Assay results taken from patent publication US20250171423A1, “PHARMACEUTICAL COMPOUNDS FOR THE TREATMENT OF COMPLEMENT MEDIATED DISORDERS” (Achillion Pharmaceuticals, Inc., priority 2020, published 2025).

target: T1, Human complement C1s enzyme (Homo sapiens, UniProt P09871); experiment: Human C1s Enzyme Assay; type: biochemical; conditions: human C1s 1.16 nM, 5 min preincubation, substrate Z-L-Lys-SBzl 100 μM, A405; read-out: C1s Protease Activity
T1 construct: purified from human serum, Complement Technology, Inc; purchased Complement Technology, Inc; host or cells: human serum
T1 sequence (P09871 438-688 limits assumed): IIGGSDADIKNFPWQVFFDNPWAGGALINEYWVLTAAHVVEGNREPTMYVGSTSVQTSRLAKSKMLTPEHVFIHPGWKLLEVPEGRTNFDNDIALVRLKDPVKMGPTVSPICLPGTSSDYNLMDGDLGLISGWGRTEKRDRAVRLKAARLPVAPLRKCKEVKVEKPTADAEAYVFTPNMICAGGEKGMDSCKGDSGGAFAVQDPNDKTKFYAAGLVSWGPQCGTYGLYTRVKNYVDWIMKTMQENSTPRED
T1 sequence (P09871 16-437 partner limits assumed): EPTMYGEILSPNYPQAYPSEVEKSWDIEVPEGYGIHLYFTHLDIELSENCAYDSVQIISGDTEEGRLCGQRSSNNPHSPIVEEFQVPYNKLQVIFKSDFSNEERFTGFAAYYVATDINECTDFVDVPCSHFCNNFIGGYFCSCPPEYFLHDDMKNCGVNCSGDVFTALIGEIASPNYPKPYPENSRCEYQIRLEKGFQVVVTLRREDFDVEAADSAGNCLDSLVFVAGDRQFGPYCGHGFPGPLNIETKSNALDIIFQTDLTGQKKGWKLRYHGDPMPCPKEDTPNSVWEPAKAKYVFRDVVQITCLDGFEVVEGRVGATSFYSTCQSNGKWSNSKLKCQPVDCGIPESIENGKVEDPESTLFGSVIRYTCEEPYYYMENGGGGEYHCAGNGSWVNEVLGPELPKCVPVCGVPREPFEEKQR
Summary of the method: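 IC50 values were fitted by nonlinear regression to rates measured as A405 every 30 s for 30 min. The thioester substrate Z-L-Lys-SBzl and Ellman's reagent were each at 100 μM. Serum-derived C1s at 1.16 nM final had 5 min of room-temperature preincubation with compound (pH 7.5 Tris buffer, 1 M NaCl).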

Compared with `C[C@@]12C[C@@H]1N(C(=O)CNC(=O)CCCOc1ccc(C(=O)O)cc1)[C@H](C(=O)NCc1cc(C(=N)N)cs1)C2` [Compound 80, 4-(4-((2-((1S,3S,5S)-3-(((4-carbamimidoylthiophen-2-yl)methyl)carbamoyl)-5-methyl-2-azabicyclo[3.1.0]hexan-2-yl)-2-oxoethyl)amino)-4-oxobutoxy)benzoic acid], `CC(C)(C)c1ccc(OCCCC(=O)NCC(=O)N2[C@H]3C[C@@]3(C)C[C@H]2C(=O)NCc2cc(C(=N)N)cs2)cc1` [Compound 87, (1S,3S,5S)-2-((4-(4-(tert-butyl)phenoxy)butanoyl)glycyl)-N-((4-carbamimidoyl-thiophen-2-yl)methyl)-5-methyl-2-azabicyclo[3.1.0]hexane-3-carboxamide] is lower in IC50: 100 to 1000 nM for the first, less than 100 nM for the second. The second is the more potent here.

Compared with `C[C@@]12C[C@@H]1N(C(=O)CNC(=O)CCCCc1ccccc1)[C@H](C(=O)NCc1cc(C(=N)N)cs1)C2` [Compound 81, (1S,3S,5S)-N-((4-carbamimidoylthiophen-2-yl)methyl)-5-methyl-2-((5-phenyl-pentanoyl)glycyl)-2-azabicyclo[3.1.0]hexane-3-carboxamide], `N=C(N)c1csc(CNC(=O)[C@@H]2C[C@]3(CO)C[C@@H]3N2C(=O)CNC(=O)CCCOc2ccccc2)c1` [Compound 84, (1S,3S,5R)-N-((4-carbamimidoylthiophen-2-yl)methyl)-5-(hydroxymethyl)-2-((4-phenoxybutanoyl)glycyl)-2-azabicyclo[3.1.0]hexane-3-carboxamide] is higher in IC50: less than 100 nM for the first, 100 to 1000 nM for the second. The first is the more potent here.

First: N=C(N)c1csc(CNC(=O)[C@@H]2CC3(CCCC3)CN2C(=O)CNC(=O)CCCOc2ccccc2)c1 [Compound 82, (S)-N-((4-carbamimidoylthiophen-2-yl)methyl)-2-((4-phenoxybutanoyl)glycyl)-2-azaspiro[4.4]nonane-3-carboxamide]
Second: [N-]=[N+]=NC[C@@]1(F)C[C@@H](C(=O)NCc2cc(C(=N)N)cs2)N(C(=O)CNC(=O)CCCOc2ccccc2)C1 [Compound 85, (2S,4R)-4-(azidomethyl)-N-((4-carbamimidoylthiophen-2-yl)methyl)-4-fluoro-1-((4-phenoxybutanoyl)glycyl)pyrrolidine-2-carboxamide]
The IC50 of the first is higher: 100 to 1000 nM for the first, less than 100 nM for the second.

`N=C(N)c1ccc(CNC(=O)[C@@H]2CC3(CN2C(=O)CNC(=O)CCCOc2ccccc2)OCCO3)s1` [Compound 83, (S)-N-((5-carbamimidoylthiophen-2-yl)methyl)-7-((4-phenoxybutanoyl)glycyl)-1,4-dioxa-7-azaspiro[4.4]nonane-8-carboxamide] and `CC(CCOc1ccccc1)C(=O)NCC(=O)N1CC2(C[C@H]1C(=O)NCc1cc(C(=N)N)cs1)OCCO2` (stereo partly drawn) [Compound 88, (8S)-N-((4-carbamimidoylthiophen-2-yl)methyl)-7-((2-methyl-4-phenoxybutanoyl)glycyl)-1,4-dioxa-7-azaspiro[4.4]nonane-8-carboxamide] cannot be ordered by IC50: less than 100 nM for the first, less than 100 nM for the second.

Going from `C[C@@]12C[C@@H]1N(C(=O)CNC(=O)c1ccc(Oc3ccccc3)cc1)[C@H](C(=O)NS(=O)(=O)c1cc(C(=N)N)cs1)C2` [Compound 86, (1S,3S,5S)-N-((4-carbamimidoylthiophen-2-yl)sulfonyl)-5-methyl-2-((4-phenoxy-benzoyl)glycyl)-2-azabicyclo[3.1.0]hexane-3-carboxamide] to `C[C@@]12C[C@@H]1N(C(=O)CNC(=O)c1ccc(Oc3ccccc3)cc1)[C@H](C(=O)OCc1cc(C(=N)N)cs1)C2` [Compound 89, (1S,3S,5S)-(4-carbamimidoylthiophen-2-yl)methyl 5-methyl-2-((4-phenoxybenzoyl)glycyl)-2-azabicyclo[3.1.0]hexane-3-carboxylate], the IC50 falls from greater than 1000 nM to less than 100 nM. The second is the more potent here.

`CCCC(COc1ccccc1)CC(=O)NCC(=O)N1CC2(C[C@H]1C(=O)NCc1cc(C(=N)N)cs1)OCCO2` (stereo partly drawn) [Compound 90, (8S)-N-((4-carbamimidoylthiophen-2-yl)methyl)-7-((3-(phenoxymethyl)hexanoyl)glycyl)-1,4-dioxa-7-azaspiro[4.4]nonane-8-carboxamide] and `CC(CCC(=O)NCC(=O)N1CC2(C[C@H]1C(=O)NCc1cc(C(=N)N)cs1)OCCO2)Oc1ccccc1` (stereo partly drawn) [Compound 97, (8S)-N-((4-carbamimidoylthiophen-2-yl)methyl)-7-((4-phenoxypentanoyl)glycyl)-1,4-dioxa-7-azaspiro[4.4]nonane-8-carboxamide] cannot be ordered by IC50: less than 100 nM for the first, less than 100 nM for the second.

First: C[C@@]12C[C@@H]1N(C(=O)CNC(=O)c1ccc(Oc3ccc(C(F)(F)F)cc3)cc1)[C@H](C(=O)NCc1cc(C(=N)N)cs1)C2 [Compound 92, (1S,3S,5S)-N-((4-carbamimidoylthiophen-2-yl)methyl)-5-methyl-2-((4-(4-(trifluoro-methyl)phenoxy)benzoyl)glycyl)-2-azabicyclo[3.1.0]hexane-3-carboxamide]
Second: C[C@@]12C[C@@H]1N(C(=O)CNC(=O)c1ccc(Oc3cccnc3)cc1)[C@H](C(=O)NCc1cc(C(=N)N)cs1)C2 [Compound 94, (1S,3S,5S)-N-[(4-carbamimidoylthiophen-2-yl)methyl]-5-methyl-2-(2-{[4-(pyridin-3-yloxy)phenyl]formamido}acetyl)-2-azabicyclo[3.1.0]hexane-3-carboxamide]
The IC50 of the first is higher: 100 to 1000 nM for the first, less than 100 nM for the second. The second is the more potent here.

First: C[C@@]12C[C@@H]1N(C(=O)CNC(=O)c1ccc(Oc3ccccc3)cn1)[C@H](C(=O)NCc1cc(C(=N)N)cs1)C2 [Compound 93, (1S,3S,5S)-N-((4-carbamimidoylthiophen-2-yl)methyl)-5-methyl-2-((5-phenoxy-picolinoyl)glycyl)-2-azabicyclo[3.1.0]hexane-3-carboxamide]
Second: C[C@@]12C[C@@H]1N(C(=O)CNC(=O)c1ccc(Oc3ccccc3)cc1)[C@H](C(=O)NCc1cnc(N)s1)C2 [Compound 102, (1S,3S,5S)-N-[(2-amino-1,3-thiazol-5-yl)methyl]-5-methyl-2-{2-[(4-phenoxyphenyl)-formamido]acetyl}-2-azabicyclo[3.1.0]hexane-3-carboxamide]
The IC50 of the first is lower: less than 100 nM for the first, 100 to 1000 nM for the second. The first is the more potent here.

First: N=C(N)c1csc(CNC(=O)[C@@H]2C=CCN2C(=O)CNC(=O)CCCOc2ccc(S(F)(F)(F)(F)F)cc2)c1 [Compound 95]
Second: C[C@@]12C[C@@H]1N(C(=O)CNC(=O)CCCOc1ccc(S(F)(F)(F)(F)F)cc1)[C@H](C(=O)NCc1cc(C(=N)N)cs1)C2 [Compound 96, (1S,3S,5S)-N-((4-carbamimidoylthiophen-2-yl)methyl)-5-methyl-2-((4-(4-(pentafluoro-λ^6-sulfanyl)phenoxy)butanoyl)glycyl)-2-azabicyclo[3.1.0]hexane-3-carboxamide]
The IC50 of the first is higher: 100 to 1000 nM for the first, less than 100 nM for the second. The second is the more potent here.

`CS(=O)(=O)[C@@H]1C[C@@H](C(=O)NCc2cc(C(=N)N)cs2)N(C(=O)CNC(=O)CCCOc2ccccc2)C1` [Compound 98, (2S,4R)-N-((4-carbamimidoylthiophen-2-yl)methyl)-4-(methylsulfonyl)-1-((4-phenoxybutanoyl)glycyl)pyrrolidine-2-carboxamide] and `C[C@@H](NC(=O)[C@@H]1C[C@](F)(CF)CN1C(=O)CNC(=O)CCCOc1ccc(F)cc1)c1cc(C(=N)N)cs1` [Compound 99, (2S,4R)-N-[(1R)-1-(4-carbamimidoylthiophen-2-yl)ethyl]-4-fluoro-4-(fluoromethyl)-1-{2-[4-(4-fluorophenoxy)butanamido]acetyl}pyrrolidine-2-carboxamide] cannot be ordered by IC50: less than 100 nM for the first, less than 100 nM for the second.

First: C[C@@]12C[C@@H]1N(C(=O)CNC(=O)COCCOCCNC(=O)COCCOCCNC(=O)CC[C@H](NC(=O)CCCCCCCCCCCCCCCCC(=O)O)C(=O)O)[C@H](C(=O)NCc1cc(C(=N)N)cs1)C2 [Compound 100, 17-{[(1S)-3-{[2-(2-{[(2-{2-[({2-[(1S,3S,5S)-3-{[(4-carbamimidoylthiophen-2-yl)methyl]-carbamoyl}-5-methyl-2-azabicyclo[3.1.0]hexan-2-yl]-2-oxoethyl}carbamoyl)methoxy]ethoxy}ethyl)-carbamoyl]methoxy}ethoxy)ethyl]carbamoyl}-1-carboxypropyl]-carbamoyl}heptadecanoic acid]
Second: C[C@@]12C[C@@H]1N(C(=O)CNC(=O)c1ccc3c(c1)-c1ccccc1C3(F)F)[C@H](C(=O)NCc1cc(C(=N)N)cs1)C2 [Compound 103, (1S,3S,5S)-N-((4-carbamimidoylthiophen-2-yl)methyl)-2-((9,9-difluoro-9H-fluorene-3-carbonyl)glycyl)-5-methyl-2-azabicyclo[3.1.0]hexane-3-carboxamide]
The IC50 of the first is higher: greater than 1000 nM for the first, less than 100 nM for the second. The second is the more potent here.

`C[C@@]12C[C@@H]1N(C(=O)CN1Cc3cc(Oc4ccccc4)ccc3C1=O)[C@H](C(=O)NCc1cc(C(=N)N)cs1)C2` [Compound 101, (1S,3S,5S)-N-((4-carbamimidoylthiophen-2-yl)methyl)-5-methyl-2-(2-(1-oxo-5-phenoxyisoindolin-2-yl)acetyl)-2-azabicyclo[3.1.0]hexane-3-carboxamide] gave an IC50 of less than 100 nM.
